Laboratory results published in paper PMC7329800, “Reduction of the serotonin 5-HT1B and 5-HT2A receptor-mediated contraction of human pulmonary artery by the combined 5-HT1B receptor antagonist and serotonin transporter inhibitor LY393558” (Pharmacological Reports, 2020).
Where “and” joins values, the source holds several entries; their conditions need not be identical. Equal values may be shown once. Read-outs that look alike come from different tables or passages of the source.

Key:
[1] = system: human pulmonary arteries; experiment: Contraction of isolated human pulmonary arteries by agonists alone (organ bath, cumulative concentration-response curves); type: cell-based; details: for EC50 / Emax: Homo sapiens
Method: (§1) Lung tissue was received from 29 men and 5 women (mean age 65 ± 2 years) with lung carcinoma (without PAH) undergoing lobectomy or pneumonectomy. Before the operation, they received cephalosporins and heparin as anti-infection and antithrombotic prophylaxis, respectively. Isolation of hPAs has been described previously. When necessary, endothelium was disrupted by rubbing of the lumen with horse hair. Arterial rings (3–5 mm in length and 2–4 mm in outer diameter) were mounted in 10 ml organ baths containing Tyrode’s solution [17] gassed with 95% O2 and 5% CO2 (37 °C, pH 7.4). Resting tension ranged from 19.6 to 24.5 mN (equivalent to transmural pressure of ~ 16 mmHg). Muscle tension was recorded by a force displacement transducer (BIO-SYS-TECH). After equilibration, rings were exposed to high KCl (60 mM) Tyrode’s solution (equimolar substitution of NaCl by KCl) to check tissue viability and maximum contraction and to phenylephrine (1 µM) followed by acetylcholine (10 µM) to verify if the endothelium is intact. […]. Concentrations of antagonists and citalopram were taken from previous studies. In each preparation, only one experimental curve was determined.
(§2) Results are given as mean ± SEM from n patients. Contractile responses were shown as percentages of the response to KCl 60 mM. GraphPad Prism 5.0 software was used to plot the mean data as sigmoidal CRCs. CRCs were used to determine potency (pEC50) and maximal effect (Emax) of agonists.

[2] = system: human pulmonary arteries; experiment: Influence of antagonists/inhibitors on 5-HT-induced vasoconstriction of isolated human pulmonary arteries; type: cell-based; details: for rightward shift of the CRC for 5-HT (factor): ketanserin 0.1 µM, SB224289 0.2 µM, GR55562 1 µM
Method: as §1, §2

[3] = biological target: T1, thromboxane A2 (TP) receptor (Homo sapiens, UniProt P21731); experiment: Influence of LY393558 on U46619-induced vasoconstriction of isolated human pulmonary arteries; type: cell-based
T1 construct: Arterial rings (3–5 mm in length and 2–4 mm in outer diameter) were mounted in 10 ml organ baths; from tissue; host or cells: human pulmonary artery rings from lung tissue removed at lobectomy or pneumonectomy
T1 sequence (P21731 1-343): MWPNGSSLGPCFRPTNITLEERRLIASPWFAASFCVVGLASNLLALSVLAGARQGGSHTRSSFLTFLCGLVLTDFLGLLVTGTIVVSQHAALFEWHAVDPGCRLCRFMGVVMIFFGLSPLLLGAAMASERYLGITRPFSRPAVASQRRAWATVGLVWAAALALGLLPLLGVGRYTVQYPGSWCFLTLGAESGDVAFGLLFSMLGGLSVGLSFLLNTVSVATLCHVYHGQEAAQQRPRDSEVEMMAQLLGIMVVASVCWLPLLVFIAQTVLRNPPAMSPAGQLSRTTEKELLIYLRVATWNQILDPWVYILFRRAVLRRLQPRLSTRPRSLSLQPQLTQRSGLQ
Method: as §1
(§3) Results are given as mean ± SEM from n patients. Contractile responses were shown as percentages of the response to KCl 60 mM. GraphPad Prism 5.0 software was used to plot the mean data as sigmoidal CRCs. […]

[4] = biological target: T2, 5-HT2AR (Homo sapiens, UniProt P28223); experiment: Influence of antagonists on α-methyl-5-HT-induced vasoconstriction of isolated human pulmonary arteries; type: cell-based; details: for Tension (contractile response to α-methyl-5-HT in absolute terms): α-methyl-5-HT in presence of ketanserin 0.01 μM or LY393558 0.1 μM, control α-methyl-5-HT (DMSO)
T2 construct: Arterial rings (3–5 mm in length and 2–4 mm in outer diameter) were mounted in 10 ml organ baths; from tissue; host or cells: human pulmonary artery rings from lung tissue removed at lobectomy or pneumonectomy
T2 sequence (P28223 whole entry): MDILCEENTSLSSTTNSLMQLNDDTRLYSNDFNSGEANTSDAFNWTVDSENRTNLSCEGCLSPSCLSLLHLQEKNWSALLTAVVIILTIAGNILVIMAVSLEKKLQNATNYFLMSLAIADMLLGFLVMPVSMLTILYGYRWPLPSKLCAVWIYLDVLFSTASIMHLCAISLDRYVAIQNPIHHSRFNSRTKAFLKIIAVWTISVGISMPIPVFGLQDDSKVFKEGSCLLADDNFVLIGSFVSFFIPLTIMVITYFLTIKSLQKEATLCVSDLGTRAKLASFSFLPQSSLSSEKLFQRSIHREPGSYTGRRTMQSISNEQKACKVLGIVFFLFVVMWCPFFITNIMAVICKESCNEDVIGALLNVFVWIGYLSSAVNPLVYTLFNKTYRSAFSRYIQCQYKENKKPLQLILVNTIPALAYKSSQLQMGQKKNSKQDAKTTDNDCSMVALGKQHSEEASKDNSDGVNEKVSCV
Method: (§4) Lung tissue was received from 29 men and 5 women (mean age 65 ± 2 years) with lung carcinoma (without PAH) undergoing lobectomy or pneumonectomy. Before the operation, they received cephalosporins and heparin as anti-infection and antithrombotic prophylaxis, respectively. Isolation of hPAs has been described previously. When necessary, endothelium was disrupted by rubbing of the lumen with horse hair. […] Muscle tension was recorded by a force displacement transducer (BIO-SYS-TECH). After equilibration, rings were exposed to high KCl (60 mM) Tyrode’s solution (equimolar substitution of NaCl by KCl) to check tissue viability and maximum contraction and to phenylephrine (1 µM) followed by acetylcholine (10 µM) to verify if the endothelium is intact. […] Concentrations of antagonists and citalopram were taken from previous studies. In each preparation, only one experimental curve was determined.
as §2

[5] = biological target: 5-HT2ARs; parameters: method as in PMID 11734182; details: read-out: pKi at 5-HT2ARs (converted); cited from earlier work
[6] = system: α1-adrenoceptor; experiment: Influence of LY393558 on phenylephrine-induced vasoconstriction of isolated human pulmonary arteries; type: cell-based
Method: as §1, §3

[7] = biological target: SERT; details: cited from earlier work
[8] = biological target: T3, 5-HT1B/1DR (Homo sapiens, UniProt P28222); experiment: Influence of antagonists on 5-CT-induced vasoconstriction of isolated human pulmonary arteries; type: cell-based; details: 5-CT in presence of SB224289 0.2 μM, GR55562 1 μM or LY393558 0.1 μM; control 5-CT (DMSO)
T3 construct: Arterial rings (3–5 mm in length and 2–4 mm in outer diameter) were mounted in 10 ml organ baths; from tissue; host or cells: human pulmonary artery rings from lung tissue removed at lobectomy or pneumonectomy
T3 sequence (P28222 whole entry): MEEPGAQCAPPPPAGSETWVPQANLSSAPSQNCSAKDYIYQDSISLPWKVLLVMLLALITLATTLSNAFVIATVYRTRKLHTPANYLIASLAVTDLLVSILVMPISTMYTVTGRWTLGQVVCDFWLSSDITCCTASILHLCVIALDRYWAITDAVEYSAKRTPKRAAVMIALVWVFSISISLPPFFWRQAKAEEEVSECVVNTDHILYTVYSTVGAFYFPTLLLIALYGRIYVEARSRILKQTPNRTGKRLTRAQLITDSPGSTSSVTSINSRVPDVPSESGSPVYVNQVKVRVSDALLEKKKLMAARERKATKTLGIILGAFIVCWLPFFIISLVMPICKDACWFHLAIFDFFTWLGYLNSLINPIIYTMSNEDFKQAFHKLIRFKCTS
Method: as §4, with “(BIO-SYS-TECH).” for “(BIO-SYS-TECH). After equilibration, rings were exposed to high KCl (60 mM) Tyrode’s solution (equimolar substitution of NaCl by KCl) to check tissue viability and maximum contraction and to phenylephrine (1 µM) followed by acetylcholine (10 µM) to verify if the endothelium is intact.”
as §2

[9] = system: human pulmonary arteries; parameters: method as in PMID 19541711; details: hPAs, other studies; cited from earlier work
[10] = agonist alone (control of LY393558 experiment, Fig. 3), endothelium-intact hPAs
[11] = 5-HT in presence of: citalopram 1 μM, SB224289 0.2 μM, GR55562 1 μM, ketanserin 0.1 μM or combinations, 45 min incubation, endothelium-intact
[12] = SB224289 0.2 μM, GR55562 1 μM, ketanserin 0.1 μM, endothelium-intact
[13] = agonist alone, DMSO vehicle control, endothelium-intact hPAs
[14] = agonist alone, endothelium removed (-ENDO)
[15] = agonist alone, endothelium-intact hPAs

CNC[C@H](O)c1cccc(O)c1 [phenylephrine, (–)-phenylephrine]
EC50 [1, 10]: 3160 nM
Emax ([1]; agonist alone (control of LY393558 experiment, Fig. 3), endothelium-intact hPAs, read-out: Emax (relative to the KCl-induced response)): 68 ± 5%

CN(C)CCCc1cc(C(=O)Nc2ccc(-c3ccncc3)cc2)ccc1O [GR55562]
Tension (contractile response to 5-HT in absolute terms) [2, 11]: 7.2 ± 2.0 mN
pA2 against 5-HT [2, 12]: 6.6 and 6.63
rightward shift of the CRC for 5-HT (factor) [2]: 5

CC(C)N1Cc2cc(S(C)(=O)=O)ccc2N(CCN2CC=C(c3c[nH]c4cc(F)ccc34)CC2)S1(=O)=O [LY393558]
effect on the vasoconstrictory effects of U46619 ([3]; LY393558 0.1 µM): did not modify
pA2 at human TP receptors ([3]; from lack of effect of 0.1 µM on U46619 response): < 7.0
Tension (contractile response to α-methyl-5-HT in absolute terms) [4]: 10.5 ± 2.4 mN
Tension (contractile response to 5-HT in absolute terms) ([2]; 5-HT + LY393558 0.1 μM, control 5-HT (DMSO), endothelium-intact): 9.1 ± 1.7 mN
pA2 against 5-HT ([2]; LY393558 0.1 μM, control 5-HT (DMSO), endothelium-intact): 8.3 and 8.25
Ki [5]: ~100 nM
effect on the vasoconstrictory effects of phenylephrine ([6]; LY393558 0.1 µM): did not modify
pA2 at human α1 receptors ([6]; from lack of effect of 0.1 µM on phenylephrine response): < 7.0
Ki ([7]; read-out: Ki (SERT inhibition)): ~1 nM
Tension (contractile response to 5-CT in absolute terms) [8]: 7.3 ± 2.0 mN

NCCc1c[nH]c2ccc(C(N)=O)cc12 [5-CT, 5-carboxamidotryptamine]
Emax (percentage of the response to 60 mM KCl) [1, 13]: 73 ± 6%
Tension (contractile response in absolute terms) [1, 13]: 8.0 ± 1.0 mN
pEC50 [1, 13]: 6.36 ± 0.09
efficacy lower than that of 5-HT ([1]; hPAs, this study): 20%
efficiency less than that of 5-HT [9]: 50%

CN(C)CCCC1(c2ccc(F)cc2)OCc2cc(C#N)ccc21 (stereo not drawn) [Citalopram]
Tension (contractile response to 5-HT in absolute terms) ([2]; 5-HT + citalopram 1 μM, endothelium removed (-ENDO)): 7.6 ± 1.3 mN
Tension (contractile response to 5-HT in absolute terms) [2, 11]: 8.9 ± 1.3 mN
influence on the potency of 5-HT ([2]; citalopram 1 µM, endothelium-denuded preparations): enhanced the potency of 5-HT
influence on the CRC for 5-HT ([2]; citalopram 1 µM, endothelium-intact hPAs): did not influence the CRC for 5-HT

CC(N)Cc1c[nH]c2ccc(O)cc12 (stereo not drawn) [α-Methyl-5-HT, α-methyl-5-HT]
Emax (percentage of the response to 60 mM KCl) [1, 13]: 79 ± 5%
Tension (contractile response in absolute terms) [1, 13]: 10.5 ± 1.0 mN
pEC50 [1, 13]: 5.89 ± 0.08

O=C(c1ccc(F)cc1)C1CCN(CCn2c(=O)[nH]c3ccccc3c2=O)CC1 [Ketanserin, ketanserin]
vasoconstriction induced by α-methyl-5-HT diminished by ([4]; LY393558, ketanserin 0.01 µM (Discussion)): 30%
Tension (contractile response to α-methyl-5-HT in absolute terms) [4]: 9.7 ± 2.3 mN
Tension (contractile response to 5-HT in absolute terms) [2, 11]: 7.7 ± 1.2 mN
pA2 against 5-HT [2, 12]: 7.40
pA2 against 5-HT ([2]; SB224289 0.2 μM, GR55562 1 μM, ketanserin 0.1 μM, endothelium-intact, listed as ketanserin): 7.4
rightward shift of the CRC for 5-HT (factor) [2]: 3

NCCc1c[nH]c2ccc(O)cc12 [5-HT, serotonin]
EC50 [1, 13]: 457 nM
EC50 [1, 14]: 1700 nM
EC50 [1, 15]: 631 nM
Emax ([1]; read-out: Emax (percentage of the response to 60 mM KCl), agonist alone, DMSO vehicle control, endothelium-intact hPAs): 82 ± 4%
Emax ([1]; read-out: Emax (percentage of the response to 60 mM KCl), agonist alone, endothelium removed (-ENDO)): 92 ± 4%
Emax ([1]; read-out: Emax (percentage of the response to 60 mM KCl), agonist alone, endothelium-intact hPAs): 94 ± 4%
Tension (contractile response in absolute terms) [1, 13]: 8.5 ± 1.8 mN
Tension (contractile response in absolute terms) [1, 14]: 9.4 ± 1.2 mN
Tension (contractile response in absolute terms) [1, 15]: 9.7 ± 1.0 mN

CCCCC[C@H](O)/C=C/[C@@H]1[C@@H](C/C=C\CCCC(=O)O)[C@H]2CO[C@@H]1C2 [U46619]
Emax (relative to the KCl-induced response) [1, 10]: 109 ± 6%
pEC50 [1, 10]: 8.60 ± 0.10

Cc1nc(-c2ccc(-c3ccc(C(=O)N4CCc5cc6c(cc54)C4(CCN(C)CC4)CO6)cc3)c(C)c2)no1 [SB224289]
Tension (contractile response to 5-HT in absolute terms) [2, 11]: 7.0 ± 1.9 mN
pA2 against 5-HT [2, 12]: 7.0 and 7.02
affinity for the SERT [7]: has no affinity for the SERT
Tension (contractile response to 5-CT in absolute terms) [8]: 10.0 ± 3.3 mN
